Laboratory results reported in patent US20240360165A1, “INHIBITORS OF CYCLIN DEPENDENT KINASE 7 (CDK7)” (Syros Pharmaceuticals, Inc., priority 2016, published 2024).
Like-named read-outs stand apart in the source and are kept apart here.

Columns and labels:
[1] = molecular target: CDK7/Cyclin H/MAT1 complex (Homo sapiens, UniProt P50613); test: CDK7 inhibition assay (Caliper/LabChip EZ Reader kinase assay); format: biochemical; conditions: Table 1; CDK7/Cyclin H/MAT1 6 nM, ATP 2 mM, 35 min at 27° C.
Chain of CDK7/Cyclin H/MAT1 complex (P50613 whole entry, species assumed): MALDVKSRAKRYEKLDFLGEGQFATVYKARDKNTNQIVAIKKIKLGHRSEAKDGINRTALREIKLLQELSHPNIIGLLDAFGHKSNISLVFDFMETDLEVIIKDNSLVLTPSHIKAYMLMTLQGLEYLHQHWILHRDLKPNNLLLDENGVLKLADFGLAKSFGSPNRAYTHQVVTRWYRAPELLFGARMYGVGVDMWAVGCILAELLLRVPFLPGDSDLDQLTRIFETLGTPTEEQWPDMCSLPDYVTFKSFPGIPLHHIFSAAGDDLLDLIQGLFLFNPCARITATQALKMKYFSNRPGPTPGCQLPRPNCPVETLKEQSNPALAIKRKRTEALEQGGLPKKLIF
Chain of CDK7/Cyclin H/MAT1 complex (P51946 whole entry partner, species assumed): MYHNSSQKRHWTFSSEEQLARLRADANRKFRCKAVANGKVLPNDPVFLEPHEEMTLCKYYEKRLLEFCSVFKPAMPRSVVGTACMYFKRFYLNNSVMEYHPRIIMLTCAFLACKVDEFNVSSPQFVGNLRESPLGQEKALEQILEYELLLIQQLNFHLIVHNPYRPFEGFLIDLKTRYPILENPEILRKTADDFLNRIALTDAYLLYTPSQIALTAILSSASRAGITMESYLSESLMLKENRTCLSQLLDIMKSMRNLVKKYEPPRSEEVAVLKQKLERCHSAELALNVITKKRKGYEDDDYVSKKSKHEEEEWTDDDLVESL
Chain of CDK7/Cyclin H/MAT1 complex (P51948 whole entry partner, species assumed): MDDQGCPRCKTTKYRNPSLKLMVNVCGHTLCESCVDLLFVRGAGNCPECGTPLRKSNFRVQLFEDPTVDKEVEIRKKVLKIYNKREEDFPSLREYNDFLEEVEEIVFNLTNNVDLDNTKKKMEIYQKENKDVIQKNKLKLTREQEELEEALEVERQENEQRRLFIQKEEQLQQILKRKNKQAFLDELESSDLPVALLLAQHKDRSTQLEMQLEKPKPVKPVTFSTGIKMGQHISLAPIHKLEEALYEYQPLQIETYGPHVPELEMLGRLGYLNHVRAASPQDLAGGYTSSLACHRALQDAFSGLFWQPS
Description: (§1) Compounds of the invention were assayed for inhibition of CDK7, CDK9, CDK12, and CDK2 activity at Biortus Biosciences (Jiangyin, Jiangsu Province, P.R. of China) using kinase assays for each CDK developed with a Caliper/LabChip EZ Reader (Perkin Elmer, Waltham, MA).
(§2) Furthermore, the CDK9 inhibition assay used CDK9/Cyclin T1 complex (8 nM) and “5-FAM-CDK9tide” peptide substrate (2 μM, synthesized fluorophore-labeled peptide with the following sequence: 5-FAM-GSRTPMY-NH2 where 5-FAM is defined above and NH2 signifies a C-terminal amide) with 10 mM MgCl2 in the buffer composition listed above. […] Additionally, the CDK2 inhibition assay used CDK2/Cyclin E1 complex (0.5 nM) and “5-FAM-CDK7tide” ([…]) as defined above, with 2 mM MgCl2 in the buffer composition listed above.

[2] = molecular target: CDK9/Cyclin T1 complex (Homo sapiens, UniProt P50750); test: CDK9 inhibition assay (Caliper/LabChip EZ Reader kinase assay); format: biochemical; conditions: Table 1; CDK9/Cyclin T1 8 nM, ATP 2 mM, 15 min at 27° C.
Chain of CDK9/Cyclin T1 complex (P50750 whole entry, species assumed): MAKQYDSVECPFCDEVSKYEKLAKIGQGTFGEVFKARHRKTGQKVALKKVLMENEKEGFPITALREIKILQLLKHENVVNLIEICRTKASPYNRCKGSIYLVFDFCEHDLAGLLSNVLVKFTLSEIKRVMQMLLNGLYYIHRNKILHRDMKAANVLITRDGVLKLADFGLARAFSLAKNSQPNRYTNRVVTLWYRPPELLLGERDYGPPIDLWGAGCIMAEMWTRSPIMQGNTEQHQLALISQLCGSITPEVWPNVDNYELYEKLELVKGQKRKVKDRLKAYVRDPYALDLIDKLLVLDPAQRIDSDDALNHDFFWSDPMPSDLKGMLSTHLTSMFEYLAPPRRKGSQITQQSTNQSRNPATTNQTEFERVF
Chain of CDK9/Cyclin T1 complex (O60563 whole entry partner, species assumed): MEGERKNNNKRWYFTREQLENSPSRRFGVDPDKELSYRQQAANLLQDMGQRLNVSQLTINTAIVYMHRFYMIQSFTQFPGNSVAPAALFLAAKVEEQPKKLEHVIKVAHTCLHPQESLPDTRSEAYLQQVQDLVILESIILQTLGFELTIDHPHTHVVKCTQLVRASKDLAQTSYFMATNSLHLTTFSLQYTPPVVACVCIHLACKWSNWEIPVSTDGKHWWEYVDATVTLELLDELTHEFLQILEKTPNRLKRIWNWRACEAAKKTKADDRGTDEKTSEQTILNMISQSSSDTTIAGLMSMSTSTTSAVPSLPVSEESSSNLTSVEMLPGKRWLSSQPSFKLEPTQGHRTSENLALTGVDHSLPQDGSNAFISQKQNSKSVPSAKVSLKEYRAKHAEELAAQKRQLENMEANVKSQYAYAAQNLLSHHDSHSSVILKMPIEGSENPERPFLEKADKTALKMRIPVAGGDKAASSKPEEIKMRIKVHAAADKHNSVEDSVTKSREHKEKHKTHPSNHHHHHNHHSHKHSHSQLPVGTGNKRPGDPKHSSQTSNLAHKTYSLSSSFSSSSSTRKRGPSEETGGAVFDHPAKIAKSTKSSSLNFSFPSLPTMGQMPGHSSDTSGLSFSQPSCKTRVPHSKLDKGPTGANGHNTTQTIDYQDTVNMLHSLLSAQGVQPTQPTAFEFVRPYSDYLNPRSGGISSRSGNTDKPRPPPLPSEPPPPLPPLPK
Description: as §1, §2

[3] = molecular target: T1, CDK12 (aa686-1082)/Cyclin K complex (Homo sapiens, UniProt Q9NYV4); test: CDK12 inhibition assay (Caliper/LabChip EZ Reader kinase assay); format: biochemical; conditions: Table 1; CDK12 (aa686-1082)/Cyclin K 50 nM, ATP 2 mM, 3 hr at 27° C.
T1 construct: CDK12 (aa686-1082)/Cyclin K complex
T1 sequence (Q9NYV4 686-1082, species assumed): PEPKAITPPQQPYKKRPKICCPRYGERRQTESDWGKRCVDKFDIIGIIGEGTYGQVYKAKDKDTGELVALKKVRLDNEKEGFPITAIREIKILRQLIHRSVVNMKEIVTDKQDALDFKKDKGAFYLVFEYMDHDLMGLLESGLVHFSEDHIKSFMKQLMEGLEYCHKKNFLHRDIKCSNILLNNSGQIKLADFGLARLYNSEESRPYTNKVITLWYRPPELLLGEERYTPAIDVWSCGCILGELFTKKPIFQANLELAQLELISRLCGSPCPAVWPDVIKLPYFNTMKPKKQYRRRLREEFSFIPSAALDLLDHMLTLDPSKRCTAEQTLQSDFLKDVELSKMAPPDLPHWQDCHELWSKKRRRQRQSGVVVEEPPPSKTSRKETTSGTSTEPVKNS
T1 sequence (O75909 whole entry partner, species assumed, the tested form may be a part): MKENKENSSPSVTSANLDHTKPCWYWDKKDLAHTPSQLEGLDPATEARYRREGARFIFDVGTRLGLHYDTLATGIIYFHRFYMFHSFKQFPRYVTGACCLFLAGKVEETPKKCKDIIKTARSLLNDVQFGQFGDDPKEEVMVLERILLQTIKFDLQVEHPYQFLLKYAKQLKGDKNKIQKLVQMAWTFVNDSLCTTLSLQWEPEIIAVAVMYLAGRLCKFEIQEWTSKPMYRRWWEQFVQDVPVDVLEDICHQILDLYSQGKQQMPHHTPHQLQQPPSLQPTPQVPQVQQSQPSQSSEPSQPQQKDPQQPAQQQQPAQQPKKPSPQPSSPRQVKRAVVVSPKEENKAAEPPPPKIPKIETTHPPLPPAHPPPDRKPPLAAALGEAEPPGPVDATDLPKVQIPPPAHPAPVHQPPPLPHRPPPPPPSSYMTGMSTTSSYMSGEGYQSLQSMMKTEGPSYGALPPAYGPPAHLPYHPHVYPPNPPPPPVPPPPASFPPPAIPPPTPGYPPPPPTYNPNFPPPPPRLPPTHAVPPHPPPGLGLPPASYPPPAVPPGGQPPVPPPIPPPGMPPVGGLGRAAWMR
Description: as §1, §2

[4] = molecular target: CDK2/Cyclin E1 complex (Homo sapiens, UniProt P24941); test: CDK2 inhibition assay (Caliper/LabChip EZ Reader kinase assay); format: biochemical; conditions: Table 1; CDK2/Cyclin E1 0.5 nM, ATP 2 mM, 35 min at 27° C.
Description: as §1, §2

[5] = system: A673 cells; test: Inhibition of proliferation of A673 cells (CyQUANT, 72 hour); format: cell-based, human; conditions: A673 cells, 72 hour, CyQUANT, read-out: Inhibition of Proliferation of A673 Cells (calculated IC50)
Description: A673 cells are a cell line derived from human […] Ewing's sarcoma. Representative compounds of the invention were tested at different concentrations (from […]; 0.5 log serial dilutions) for their ability to inhibit the proliferation of A673 cells. Known CDK inhibitors dinaciclib or N-((1S,3R)-3-((5-chloro-4-(1H-indol-3-yl)pyrimidin-2-yl)amino)cyclohexyl)-5-((E)-4-(dimethylamino)but-2-enamido)picolinamide and triptolide were used as positive controls. Cells were grown in Dulbecco's Modified Eagle's Medium, +10% FBS+1 mM Sodium Pyruvate. The cells were cultured at 37° C. in a humidified chamber in the presence of 5% CO2. Proliferation assays were conducted over a 72 hour time period. CyQUANT® (Life Technologies, Chicago, IL USA) was used to assess the anti-proliferative effects of the compounds following manufacturer's directions and utilizing the reagents supplied with the CyQUANT® kit.

Structure (SMILES) | IC50 [1] [nM] | IC50 [2] [nM] | IC50 [3] [nM] | IC50 [4] [nM] | IC50 ([5]; Homo sapiens) [nM] | IC50 [5] [nM] | IC50 ([5]; Homo sapiens, A673, 72 h) [nM]
CCOP(C)(=O)c1cccc2c(-c3nc(N[C@H]4CCCNC4)ncc3C(F)(F)F)c[nH]c12 (stereo partly shown) [Compound 179] | < 20 | 200 to 5000 | 200 to 5000 | 200 to 5000 | < 20 | – | –
C#Cc1cnc(N[C@H]2CCCNC2)nc1-c1cn(C)c2ccccc12 [Compound 195] | 200 to 5000 | > 5000 | > 5000 | > 5000 | – | 20 to 200 | –
CC(C)(O)CCc1cccc2c(-c3nc(N[C@H]4CCCNC4)ncc3C(F)(F)F)c[nH]c12 [Compound 191] | < 20 | 200 to 5000 | 200 to 5000 | 200 to 5000 | – | < 20 | –
CC(C)N1CCC[C@H](Nc2ncc(Cl)c(-c3c[nH]c4ccccc34)n2)C1 [Compound 148] | 20 to 200 | 200 to 5000 | 200 to 5000 | > 5000 | – | – | 20 to 200
CCc1cnc(N[C@H]2CCCNC2)nc1-c1n[nH]c2ncccc12 [Compound 262, 5-ethyl-N-[(3S)-3-piperidyl]-4-(1H-pyrazolo[3,4-b]pyridin-3-yl)pyrimidin-2-amine] | < 20 | 200 to 5000 | 200 to 5000 | 200 to 5000 | – | – | 20 to 200
CC[C@@H]1CC[C@H](Nc2ncc(C(F)(F)F)c(-c3c[nH]c4ccccc34)n2)CN1 [Compound 211] | 20 to 200 | 200 to 5000 | 200 to 5000 | 200 to 5000 | – | – | 20 to 200
CC(=O)c1cnc(N[C@H]2CCCNC2)nc1-c1c[nH]c2ccccc12 [Compound 208] | 20 to 200 | > 5000 | 200 to 5000 | > 5000 | – | – | 20 to 200
CC[C@H]1CC[C@H](Nc2ncc(C(F)(F)F)c(-c3c[nH]c4ccccc34)n2)CN1 [Compound 217] | < 20 | 200 to 5000 | 200 to 5000 | 200 to 5000 | – | – | 20 to 200
Cc1nc(-c2ccc3c(-c4nc(N[C@H]5CCCNC5)ncc4C(F)(F)F)c[nH]c3c2)n[nH]1 [Compound 235] | < 20 | 200 to 5000 | 200 to 5000 | 200 to 5000 | – | – | 200 to 5000
FC(F)(F)c1cnc(N[C@@H]2CNC[C@H](c3nnc4ccccn34)C2)nc1-c1c[nH]c2ccccc12 (relative stereo) [Compound 266] | 20 to 200 | 200 to 5000 | 200 to 5000 | 200 to 5000 | – | 20 to 200 | –
O[C@H]1CNC[C@@H](Nc2ncc(C(F)(F)F)c(-c3c[nH]c4ccccc34)n2)C1 [Compound 203, (3R,5S)-5-[[4-(1H-indol-3-yl)-5-(trifluoromethyl)pyrimidin-2-yl]amino]piperidin-3-ol] | < 20 | 200 to 5000 | 200 to 5000 | 200 to 5000 | – | – | < 20
N#Cc1cnc(N[C@H]2CCCNC2)nc1-c1c[nH]c2ccccc12 [Compound 157] | < 20 | 200 to 5000 | 200 to 5000 | 200 to 5000 | – | – | < 20
FCCc1cnc(N[C@H]2CCCNC2)nc1-c1c[nH]c2ccccc12 [Compound 206] | 20 to 200 | 200 to 5000 | 200 to 5000 | > 5000 | – | – | 200 to 5000
CC(O)c1cnc(NC2CCCNC2)nc1-c1c[nH]c2ccccc12 (single isomer, unassigned) [Compound 238] | 200 to 5000 | > 5000 | > 5000 | > 5000 | – | – | 200 to 5000
